Data reported in ChEMBL document CHEMBL3885881, “DrugMatrix”.

Organism: Rattus norvegicus
Experiment: DrugMatrix - Regimen: Daily Repeat
Format: toxicity, organism-based, Sprague-Dawley
Design: regimen Daily Repeat, gender Male, age 6-8 weeks
Conditions: in vivo, po, route oral GAVAGE, vehicle .5 % CMC; for ABSOLUTE BASOPHIL / ABSOLUTE EOSINOPHIL / ABSOLUTE LYMPHOCYTE / ABSOLUTE MONOCYTE / ABSOLUTE SEGMENTED NEUTROPHIL / BASOPHIL / EOSINOPHIL / ERYTHROCYTE COUNT / HEMATOCRIT / HEMOGLOBIN / LEUKOCYTE COUNT / LYMPHOCYTE / MEAN CORPUSCULAR HEMOGLOBIN / MEAN CORPUSCULAR HEMOGLOBIN CONCENTRATION / MEAN CORPUSCULAR VOLUME / MONOCYTE / NEUTROPHIL / NUCLEATED RED BLOOD CELLS / PLATELET COUNT: tissue Blood; for ALANINE AMINOTRANSFERASE / ALBUMIN / ALKALINE PHOSPHATASE / ASPARTATE AMINOTRANSFERASE / BLOOD UREA NITROGEN / CARBON DIOXIDE / CHLORIDE / CHOLESTEROL / CREATINE PHOSPHOKINASE / CREATININE / GLUCOSE / LACTATE DEHYDROGENASE / LIPASE / PHOSPHORUS / POTASSIUM / SODIUM / TOTAL BILIRUBIN / TOTAL PROTEIN / URIC ACID: tissue Plasma
[1] = 100 mg/kg, 120 h, dose level Low, time 5 day
[2] = 2000 mg/kg, 72 h, dose level High, time 3 day
[3] = 2000 mg/kg, 120 h, dose level High, time 5 day

SMILES: CN/C(=N/CCSCc1nc[nH]c1C)NC#N [CIMETIDINE]
- ABSOLUTE BASOPHIL [1]: 0 CELLS/uL
- ABSOLUTE EOSINOPHIL [1]: 36.33 CELLS/uL
- ABSOLUTE LYMPHOCYTE [1]: 10440.33 CELLS/uL
- ABSOLUTE MONOCYTE [1]: 206 CELLS/uL
- ABSOLUTE SEGMENTED NEUTROPHIL [1]: 1017.33 CELLS/uL
- BASOPHIL [1]: 0%
- EOSINOPHIL [1]: 0.33%
- ERYTHROCYTE COUNT [1]: 5.58 x10E6/uL
- HEMATOCRIT [1]: 34.03%
- HEMOGLOBIN [1]: 13.43 G/DL
- LEUKOCYTE COUNT [1]: 11.7 x10E3/uL
- LYMPHOCYTE [1]: 89.33%
- MEAN CORPUSCULAR HEMOGLOBIN [1]: 24.07 pg
- MEAN CORPUSCULAR HEMOGLOBIN CONCENTRATION [1]: 39.47 G/DL
- MEAN CORPUSCULAR VOLUME [1]: 61 fL
- MONOCYTE [1]: 1.67%
- NEUTROPHIL [1]: 8.67%
- NUCLEATED RED BLOOD CELLS [1]: 0 /100WBC
- PLATELET COUNT [1]: 685.33 x10E3/uL
- ALANINE AMINOTRANSFERASE [1]: 61.33 u/L
- ALBUMIN [1]: 4.23 G/DL
- ALKALINE PHOSPHATASE [1]: 391.33 u/L
- ASPARTATE AMINOTRANSFERASE [1]: 101.67 u/L
- BLOOD UREA NITROGEN [1]: 15.33 mg/dL
- CARBON DIOXIDE [1]: 28 mmol/L
- CHLORIDE [1]: 101 MEQ/L
- CHOLESTEROL [1]: 69 mg/dL
- CREATINE PHOSPHOKINASE [1]: 711.67 u/L
- CREATININE [1]: 0.18 mg/dL
- GLUCOSE [1]: 163 mg/dL
- LACTATE DEHYDROGENASE [1]: 293 u/L
- LIPASE [1]: 10.33 u/L
- PHOSPHORUS [1]: 11.6 mg/dL
- POTASSIUM [1]: 6.16 MEQ/L
- SODIUM [1]: 141.5 MEQ/L
- TOTAL BILIRUBIN [1]: 0.2 mg/dL
- TOTAL PROTEIN [1]: 5.97 G/DL
- URIC ACID [1]: 1.67 mg/dL
- ABSOLUTE BASOPHIL [2]: 0 CELLS/uL
- ABSOLUTE EOSINOPHIL [2]: 50 CELLS/uL
- ABSOLUTE LYMPHOCYTE [2]: 13681 CELLS/uL
- ABSOLUTE MONOCYTE [2]: 50 CELLS/uL
- ABSOLUTE SEGMENTED NEUTROPHIL [2]: 2252.33 CELLS/uL
- BASOPHIL [2]: 0%
- EOSINOPHIL [2]: 0.33%
- ERYTHROCYTE COUNT [2]: 5.85 x10E6/uL
- HEMATOCRIT [2]: 36.93%
- HEMOGLOBIN [2]: 14.33 G/DL
- LEUKOCYTE COUNT [2]: 16.03 x10E3/uL
- LYMPHOCYTE [2]: 84.33%
- MEAN CORPUSCULAR HEMOGLOBIN [2]: 24.5 pg
- MEAN CORPUSCULAR HEMOGLOBIN CONCENTRATION [2]: 38.8 G/DL
- MEAN CORPUSCULAR VOLUME [2]: 63.17 fL
- MONOCYTE [2]: 0.33%
- NEUTROPHIL [2]: 15%
- NUCLEATED RED BLOOD CELLS [2]: 0.33 /100WBC
- PLATELET COUNT [2]: 1342.33 x10E3/uL
- ALANINE AMINOTRANSFERASE [2]: 56 u/L
- ALBUMIN [2]: 4.13 G/DL
- ALKALINE PHOSPHATASE [2]: 392.67 u/L
- ASPARTATE AMINOTRANSFERASE [2]: 83.33 u/L
- BLOOD UREA NITROGEN [2]: 18 mg/dL
- CARBON DIOXIDE [2]: 32.33 mmol/L
- CHLORIDE [2]: 98.33 MEQ/L
- CHOLESTEROL [2]: 86.67 mg/dL
- CREATINE PHOSPHOKINASE [2]: 295 u/L
- CREATININE [2]: 0.24 mg/dL
- GLUCOSE [2]: 145.67 mg/dL
- LACTATE DEHYDROGENASE [2]: 334.33 u/L
- LIPASE [2]: 17 u/L
- PHOSPHORUS [2]: 11.87 mg/dL
- POTASSIUM [2]: 7.13 MEQ/L
- SODIUM [2]: 141.97 MEQ/L
- TOTAL BILIRUBIN [2]: 0.17 mg/dL
- TOTAL PROTEIN [2]: 5.67 G/DL
- URIC ACID [2]: 1.5 mg/dL
- ABSOLUTE BASOPHIL [3]: 0 CELLS/uL
- ABSOLUTE EOSINOPHIL [3]: 104.67 CELLS/uL
- ABSOLUTE LYMPHOCYTE [3]: 19446 CELLS/uL
- ABSOLUTE MONOCYTE [3]: 531.33 CELLS/uL
- ABSOLUTE SEGMENTED NEUTROPHIL [3]: 1118 CELLS/uL
- BASOPHIL [3]: 0%
- EOSINOPHIL [3]: 0.67%
- ERYTHROCYTE COUNT [3]: 5.6 x10E6/uL
- HEMATOCRIT [3]: 34.37%
- HEMOGLOBIN [3]: 14 G/DL
- LEUKOCYTE COUNT [3]: 21.2 x10E3/uL
- LYMPHOCYTE [3]: 91.33%
- MEAN CORPUSCULAR HEMOGLOBIN [3]: 25.03 pg
- MEAN CORPUSCULAR HEMOGLOBIN CONCENTRATION [3]: 40.77 G/DL
- MEAN CORPUSCULAR VOLUME [3]: 61.33 fL
- MONOCYTE [3]: 2.33%
- NEUTROPHIL [3]: 5.67%
- NUCLEATED RED BLOOD CELLS [3]: 0 /100WBC
- PLATELET COUNT [3]: 1356.67 x10E3/uL
- ALANINE AMINOTRANSFERASE [3]: 58 u/L
- ALBUMIN [3]: 4.07 G/DL
- ALKALINE PHOSPHATASE [3]: 363 u/L
- ASPARTATE AMINOTRANSFERASE [3]: 88.33 u/L
- BLOOD UREA NITROGEN [3]: 19.33 mg/dL
- CARBON DIOXIDE [3]: 25 mmol/L
- CHLORIDE [3]: 100.33 MEQ/L
- CHOLESTEROL [3]: 60 mg/dL
- CREATINE PHOSPHOKINASE [3]: 520.33 u/L
- CREATININE [3]: 0.3 mg/dL
- GLUCOSE [3]: 225 mg/dL
- LACTATE DEHYDROGENASE [3]: 221.33 u/L
- LIPASE [3]: 8 u/L
- PHOSPHORUS [3]: 13.4 mg/dL
- POTASSIUM [3]: 5.31 MEQ/L
- SODIUM [3]: 143.57 MEQ/L
- TOTAL BILIRUBIN [3]: 0.2 mg/dL
- TOTAL PROTEIN [3]: 5.73 G/DL
- URIC ACID [3]: 1.9 mg/dL
